# Data: ChEMBL document CHEMBL1153701, “Synthesis and evaluation of antiallodynic and anticonvulsant activity of novel amide and urea derivatives of valproic acid analogues” (2009)
# The source made the active and inactive calls. The rule behind the calls is not given here.
# Experiments:
# [1] = system: Mus musculus; test: Antiepileptic activity in CF1 mouse assessed as inhibition of maximal electroshock-induced seizures at 30 mg/kg, ip after 0.5 hrs; type: functional, organism-based; design: dose 30 mg/kg
# [2] = system: Mus musculus; test: Antiepileptic activity in CF1 mouse assessed as inhibition of maximal electroshock-induced seizures at 100 mg/kg, ip after 0.5 hrs; type: functional, organism-based; design: dose 100 mg/kg
# [3] = system: Mus musculus; test: Antiepileptic activity in CF1 mouse assessed as inhibition of maximal electroshock-induced seizures at 30 mg/kg, ip after 4 hrs; type: functional, organism-based; design: dose 30 mg/kg
# [4] = system: Mus musculus; test: Antiepileptic activity in CF1 mouse assessed as inhibition of maximal electroshock-induced seizures at 100 mg/kg, ip after 4 hrs; type: functional, organism-based; design: dose 100 mg/kg
# [5] = system: Mus musculus; test: Antiepileptic activity in CF1 mouse assessed as inhibition of maximal electroshock-induced seizures at 300 mg/kg, ip after 4 hrs; type: functional, organism-based; design: dose 300 mg/kg
# [6] = system: Mus musculus; test: Antiepileptic activity in CF1 mouse assessed as inhibition of subcutaneous pentylenetetrazole-induced seizures at 30 mg/kg, ip after 0.5 hrs; type: functional, organism-based; design: dose 30 mg/kg
# [7] = system: Mus musculus; test: Antiepileptic activity in CF1 mouse assessed as inhibition of subcutaneous pentylenetetrazole-induced seizures at 100 mg/kg, ip after 0.5 hrs; type: functional, organism-based; design: dose 100 mg/kg
# [8] = system: Mus musculus; test: Antiepileptic activity in CF1 mouse assessed as inhibition of subcutaneous pentylenetetrazole-induced seizures at 30 mg/kg, ip after 4 hrs; type: functional, organism-based; design: dose 30 mg/kg
# [9] = system: Mus musculus; test: Antiepileptic activity in CF1 mouse assessed as inhibition of subcutaneous pentylenetetrazole-induced seizures at 100 mg/kg, ip after 4 hrs; type: functional, organism-based; design: dose 100 mg/kg
# [10] = system: Mus musculus; test: Neurotoxicity in CF1 mouse assessed as protection against motor impairment at 30 mg/kg, ip after 0.5 hrs by rotarod test; type: functional, organism-based; design: dose 30 mg/kg
# [11] = system: Mus musculus; test: Neurotoxicity in CF1 mouse assessed as protection against motor impairment at 100 mg/kg, ip after 0.5 hrs by rotarod test; type: functional, organism-based; design: dose 100 mg/kg
# [12] = system: Mus musculus; test: Neurotoxicity in CF1 mouse assessed as protection against motor impairment at 300 mg/kg, ip after 0.5 hrs by rotarod test; type: functional, organism-based; design: dose 300 mg/kg
# [13] = system: Mus musculus; test: Neurotoxicity in CF1 mouse assessed as protection against motor impairment at 30 mg/kg, ip after 4 hrs by rotarod test; type: functional, organism-based; design: dose 30 mg/kg
# [14] = system: Mus musculus; test: Neurotoxicity in CF1 mouse assessed as protection against motor impairment at 100 mg/kg, ip after 4 hrs by rotarod test; type: functional, organism-based; design: dose 100 mg/kg
# [15] = system: Mus musculus; test: Antiepileptic activity in ip dosed CF1 mouse assessed as inhibition of subcutaneous pentylenetetrazole-induced seizures; type: functional
# [16] = system: Mus musculus; test: Antiepileptic activity in CF1 mouse assessed as inhibition of maximal electroshock-induced seizures at 300 mg/kg, ip after 0.5 hrs; type: functional, organism-based; design: dose 300 mg/kg
# [17] = system: Mus musculus; test: Antiepileptic activity in CF1 mouse assessed as inhibition of subcutaneous pentylenetetrazole-induced seizures at 300 mg/kg, ip after 0.5 hrs; type: functional, organism-based; design: dose 300 mg/kg
# [18] = system: Mus musculus; test: Antiepileptic activity in CF1 mouse assessed as inhibition of subcutaneous pentylenetetrazole-induced seizures at 300 mg/kg, ip after 4 hrs; type: functional, organism-based; design: dose 300 mg/kg
# [19] = system: Mus musculus; test: Neurotoxicity in CF1 mouse assessed as protection against motor impairment at 300 mg/kg, ip after 4 hrs by rotarod test; type: functional, organism-based; design: dose 300 mg/kg
# [20] = system: Rattus norvegicus; test: Antiallodynic activity in ip dosed rat assessed as protection against spinal nerve ligation-induced neuropathic pain; type: functional
# [21] = species on record: Rattus norvegicus; test: Ratio of ED50 for antiallodynic activity in rat assessed as protection against spinal nerve ligation-induced neuropathic pain to ED50 for antiepileptic activity in rat by maximal electroshock-induced seizures assay; type: functional
# [22] = system: Rattus norvegicus; test: Anticonvulsant activity in albino Sprague-Dawley rat assessed as protection against pilocarpine-induced seizure at 37.5 mg/kg, ip; type: functional, organism-based; design: dose 37.5 mg/kg
# [23] = system: Rattus norvegicus; test: Anticonvulsant activity in albino Sprague-Dawley rat assessed as protection against pilocarpine-induced seizure at 75 mg/kg, ip; type: functional, organism-based; design: dose 75 mg/kg
# [24] = system: Rattus norvegicus; test: Anticonvulsant activity in ip dosed albino Sprague-Dawley rat assessed as protection against pilocarpine-induced seizure treated after 30 mins of pilcarpine challenge; type: functional; conditions: 0.5 h
# [25] = system: Mus musculus; test: Antiepileptic activity in ip dosed CF1 mouse assessed as inhibition of maximal electroshock-induced seizures; type: functional
# [26] = system: Rattus norvegicus; test: Anticonvulsant activity in albino Sprague-Dawley rat assessed as protection against pilocarpine-induced seizure at 100 mg/kg, ip; type: functional, organism-based; design: dose 100 mg/kg
# [27] = system: Rattus norvegicus; test: Antiallodynic activity in rat assessed as protection against spinal nerve ligation-induced neuropathic pain at 80 mg/kg, ip after 180 mins; type: functional, organism-based; design: dose 80 mg/kg
# [28] = system: Rattus norvegicus; test: Anticonvulsant activity in albino Sprague-Dawley rat assessed as protection against pilocarpine-induced seizure at 200 mg/kg, ip treated after 30 mins of pilcarpine challenge; type: functional, organism-based; design: dose 200 mg/kg
# [29] = system: Rattus norvegicus; test: Antiallodynic activity in rat assessed as protection against spinal nerve ligation-induced neuropathic pain at 80 mg/kg, ip after 30 mins; type: functional, organism-based; design: dose 80 mg/kg
# [30] = system: Rattus norvegicus; test: Antiallodynic activity in rat assessed as protection against spinal nerve ligation-induced neuropathic pain at 80 mg/kg, ip after 60 mins; type: functional, organism-based; design: dose 80 mg/kg
# [31] = system: Rattus norvegicus; test: Antiallodynic activity in rat assessed as protection against spinal nerve ligation-induced neuropathic pain at 80 mg/kg, ip after 120 mins; type: functional, organism-based; design: dose 80 mg/kg
SMILES,Activity [1],Activity [2],Activity [3],Activity [4],Activity [5],Activity [6],Activity [7],Activity [8],Activity [9],Activity [10],Activity [11],Activity [12],Activity [13],Activity [14],Activity [16],Activity [17],Activity [18],Activity [19],ED50 [20] [mg/kg],ratio [21],other results
CCCCC(CC)C(N)=O (stereo not given),inactive,Active,inactive,inactive,inactive,inactive,inactive,inactive,inactive,inactive,inactive,Active,inactive,inactive,,,,,,,ED50 [15]: 103 mg/kg
CCC(C)C(CC)C(=O)NC(N)=O (stereo not given) [CAPURIDE],inactive,Active,inactive,inactive,Active,inactive,Active,inactive,inactive,,Active,Active,inactive,inactive,Active,Active,Active,Active,49,0.49,Activity [22]: Active; Activity [23]: Active; ED50 [24]: 23 mg/kg
CC(C)(C)CC(=O)NC(N)=O,inactive,inactive,inactive,inactive,inactive,inactive,,inactive,inactive,inactive,,Active,inactive,inactive,Active,Active,inactive,inactive,74,0.86,ED50 [25]: 64 mg/kg; Activity [26]: Active
CCCC(C(=O)NC(N)=O)C(C)C (stereo not given),inactive,inactive,inactive,inactive,Active,inactive,Active,inactive,inactive,,,,,,inactive,Active,inactive,inactive,,,Activity [27]: inactive; Activity [28]: Active; Activity [29]: inactive; Activity [30]: inactive; Activity [31]: inactive
